Measurements: patent publication US20040265846A1, “Adrenergic receptors” (DUKE UNIVERSITY, priority 2002, published 2004)
Substitutions are numbered along the chain they refer to. Read-outs that look alike come from different tables or passages of the source.

Key:
[1] = tested on: α1aAR F308 / F312 substituted receptors; conditions: cited from earlier work
human α1aAR SNPs [2] = assay: NE-induced desensitization of IP response, receptors with any SNP; format: cell-based; conditions: high or low expression level
Protocol: (§3) The extent of desensitization was expressed as percent of reduction of IP response in pretreated cells compared with the response in naive cells. n=3-6. […] High-expression clones. […] Low-expression clones. Measurement of Intracellular Inositol Phosphate (IP) Production. […] Measurement of intracellular IP production was performed under serum-free conditions. […] For all experiments, membranes were collected for receptor quantititation and cells were counted at the time of assay.

human α1aAR WT [3] = biological target: T1, human α1aAR WT (Homo sapiens, UniProt P35348); assay: NE-induced desensitization of IP response, WT; format: cell-based; conditions: 10 min 10 μM NE pretreatment, compared with unpretreated
T1 construct: expressed in transfected cells
T1 sequence (P35348 1-466): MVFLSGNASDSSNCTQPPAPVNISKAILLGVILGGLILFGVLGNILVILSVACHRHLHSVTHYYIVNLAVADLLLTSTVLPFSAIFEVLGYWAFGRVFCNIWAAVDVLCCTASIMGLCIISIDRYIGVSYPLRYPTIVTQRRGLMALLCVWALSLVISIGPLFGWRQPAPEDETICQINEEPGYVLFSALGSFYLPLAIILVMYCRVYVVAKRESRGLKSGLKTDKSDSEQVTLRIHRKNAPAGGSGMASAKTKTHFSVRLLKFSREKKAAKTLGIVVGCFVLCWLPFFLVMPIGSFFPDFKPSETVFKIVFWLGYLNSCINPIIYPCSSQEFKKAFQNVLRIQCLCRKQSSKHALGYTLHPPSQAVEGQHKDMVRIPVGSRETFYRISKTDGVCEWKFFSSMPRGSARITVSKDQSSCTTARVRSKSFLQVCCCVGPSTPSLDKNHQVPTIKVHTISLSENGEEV
Protocol: as §3

human α1aAR SNPs [4] = assay: NE-stimulated IP production, transiently expressed polymorphic receptors; format: cell-based; conditions: any polymorphic receptor, transient expression 1.30-1.98 pmol/mg protein
Protocol: Effect of human α1aAR SNPs on IP signaling in transiently transfected rat-1 fibroblasts (receptor densities 1.30-1.98 pmol/mg protein). […] For each construct, IP assay, binding assay and cell number were measured in paralleled plates. […] Basal IP release.
Transient transfection was also used to express receptors for binding and IP experiments in order to verify consistent behavior using alternative methods of protein expression.
Measurement of Intracellular Inositol Phosphate (IP) Production. Rat-1 cells expressing either the WT or mutated α1aAR grown on 12-well plates were labeled with [^3H]inositol for 20-24 h with 2.5 μCi/ml in complete DMEM. Measurement of intracellular IP production was performed under serum-free conditions. […] For all experiments, membranes were collected for receptor quantititation and cells were counted at the time of assay.

human α1aAR WT [5] = biological target: T1, human α1aAR WT; assay: [125I]HEAT saturation binding on membranes, WT high expressing clone; conditions: membranes from WT α1aAR high expressing clone, rat-1 fibroblasts, 1.77±0.24 pmol/mg protein
Protocol: (§1) Cell Culture and Transfection. Rat-1 fibroblasts were cultured in DMEM supplemented with 10% FBS at 37° C. Cells were transfected with either the WT (reference sequence with all major alleles, GenBank accession number L31774) or mutated α1aAR in pcDNA3 by calcium phosphate precipitation. For stable transfection, clones resistant to G418 (0.8 mg/ml) were isolated and tested for receptor expression. Two different expression levels were chosen for receptor functional investigation. Low receptor expression level was defined a priori as <0.5 pmol/mg total protein, while high-level expression was defined as >1.5 pmol/mg protein.
(§2) Membrane Preparation and Radioligand Binding. Rat-1 membrane preparation and ligand binding assay using the α1AR selective antagonist, [^125I]HEAT, were performed as previously described (Schwinn et al, J. Pharmacol. Exp. Ther. 272:134-142 (1995)).
Pharmacological Characterization. In order to examine whether these polymorphic α1aARs have altered ligand binding characteristics, saturation binding isotherms were first performed to determine the dissociation constant (Kd) for the antagonist [^125I]HEAT, followed by competition assays designed to determine binding affinities for a series of α1aAR agonists and antagonists.

human α1aAR SNPs [6] = assay: [125I]HEAT saturation binding on membranes, receptors containing each SNP; conditions: expression 1.53-2.37 pmol/mg
Protocol: In Vitro Site-Directed Mutagenesis in the aoclar. Site-directed mutagenesis was utilized to introduce mutations corresponding to each SNP in hemagglutinin-tagged human α1aAR previously placed in the expression vector pcDNA3 (Price et al, J. Biol. Chem. 277:9570-9579 (2002)). Mutagenesis was performed using the QuickChange™ Site-Directed Mutagenesis Kit (Stratagene) as recommended by the manufacture. All mutations were confirmed by DNA sequencing (Duke University DNA Analysis Facility).
as §1, §2
Pharmacological Characterization. […]

human α1aAR SNP V311I = biological target: T2, human α1aAR SNP V311I (Homo sapiens, UniProt P35348, V311I); assay: Competition binding vs [125I]HEAT, SNP V311I; conditions: high expressing clone
T2 construct: expressed in transfected cells
T2 sequence (P35348 1-466 V311I): T1 sequence (P35348 1-466) with V311I

[7] = tested on: α1aAR F163 (TM4) / F187 (TM5) mutants; conditions: Waugh et al 2000; cited from earlier work
human α1aAR SNPs [8] = conditions: receptors containing any SNP, high expressing clones

SMILES: COc1ccccc1N1CCN(CCCNc2c(C)c(=O)n(C)c(=O)n2C)CC1 [5-methylurapidil]
- affinity on substitution of F308 and F312 ([1]; Waugh et al 2001): decreased affinity

SMILES: COc1ccccc1N1CCN(CCN2C(=O)CC3(CCCC3)CC2=O)CC1 [BMY7378]
- affinity on substitution of F308 and F312 ([1]; Waugh et al 2001): decreased affinity

SMILES: NC[C@H](O)c1ccc(O)c(O)c1 [NE, (−)-norepinephrine]
- agonist-induced desensitization, SNP receptors vs WT (human α1aAR SNPs [2]): no difference in agonist-induced desensitization
- lower IP production after NE pretreatment (desensitization) (human α1aAR WT [3]; high-expression level): 33.5±3.2%
- lower IP production after NE pretreatment (desensitization) (human α1aAR WT [3]; low-expression level): 31.0±3.1%
- maximum IP response vs WT (human α1aAR SNPs [4]): no significant change

SMILES: COc1cccc(OC)c1OCCNCC1COc2ccccc2O1 (stereo not drawn) [WB4101]
- affinity on substitution of F308 and F312 ([1]; Waugh et al 2001): decreased affinity

SMILES: O=C1c2ccccc2CCC1CNCCc1ccc(O)c(I)c1 (stereo not drawn) [[^125I]HEAT, ^125I-(2-β-(4-hydroxyphenyl)-ethylamineomethyl)-tetralone]
- Kd (human α1aAR WT [5]): 0.0421 ± 0.0065 nM

SMILES: O=C1c2ccccc2CCC1CNCCc1ccc(O)c([125I])c1 (stereo not drawn) [[^125I]HEAT, ^125I-(2-β-(4-hydroxyphenyl)-ethylamineomethyl)-tetralone]
- affinity on substitution of F308 and F312 ([1]; Waugh et al 2001): not
- Kd values for [125I]HEAT compared with WT (human α1aAR SNPs [6]): not significantly different from WT

SMILES: CNC[C@H](O)c1ccc(O)c(O)c1 [epinephrine, (−)-epinephrine]
- Ki increase vs WT (decrease in receptor affinity) (human α1aAR SNP V311I): ~3 fold
- decrease in affinity on mutation of F163 or F187 [7]: 10 fold

SMILES: Cc1cc(C(C)(C)C)c(O)c(C)c1CC1=NCCN1 [oxymetazoline]
- change in affinity vs WT (human α1aAR SNPs [8]): no change in the affinity

SMILES: Cc1ccc(N(CC2=NCCN2)c2cccc(O)c2)cc1 [phentolamine]
- affinity on substitution of F308 and F312 ([1]; Waugh et al 2001): not

SMILES: COc1cc2nc(N3CCN(C(=O)c4ccco4)CC3)nc(N)c2cc1OC [prazosin]
- affinity on substitution of F308 and F312 [1]: decreased affinity
